The conditions of the data set: 18-membered ring.

Drawing on patent US20250195521A1 (Revolution Medicines, Inc., priority 2020, published 2025), this text covers ring closure, isolated yield for ten compounds.

Like-named read-outs stand apart in the source and are kept apart here.

The compound `CCn1c(-c2cccnc2[C@H](C)OC)c2c3cc(ccc31)-c1csc(n1)C[C@H](NC(=O)OC(C)(C)C)C(=O)N1CC[C@H](C)[C@H](N1)C(=O)OCC(C)(C)C2` showed a ring closure, isolated yield (from CCn1c(-c2cccnc2[C@H](C)OC)c(CC(C)(C)COC(=O)[C@H]2NN(C(=O)[C@H](Cc3nc(Br)cs3)NC(=O)OC(C)(C)C)CC[C@@H]2C)c2cc(B3OC(C)(C)C(C)(C)O3)ccc21, cc_pd bond, Pd(DtBPF)Cl2/K3PO4, dioxane/H2O 5:1, 17.5 mM, 60.0 °C, 1.0 h) of 44.7%.

“tert-butyl ((6^3S,4S)-2^3-((tert-butyldiphenylsilyl)oxy)-1^1-ethyl-1^2-(2-((S)-1-methoxyethyl) pyridin-3-yl)-10,10-dimethyl-5,7-dioxo-2^1,2^2,2^3,2^6,6^1,6^2,6^3,6^4,6^5,6^6-decahydro-1^1H-8-oxa-1 (5,3)-indola-6 (1,3)- pyridazina-2 (5,1)-pyridinacycloundecaphane-4-yl) carbamate” yielded a ring closure, isolated yield (cc_pd bond, Pd(dppf)Cl2/K2CO3, toluene/1,4-dioxane/H2O 3:1:1, 20.0 mM, 65.0 °C) of 42%.

Take `CCn1c(-c2cccnc2[C@H](C)OC)c2c3cc(ccc31)N1CCC[C@@H](C[C@H](NC(=O)OCc3ccccc3)C(=O)N3CCC[C@H](N3)C(=O)OCC(C)(C)C2)C1`: the ring closure, isolated yield (from CCn1c(-c2cccnc2[C@H](C)OC)c(CC(C)(C)CO)c2cc(N3CCC[C@@H](C[C@H](NC(=O)OCc4ccccc4)C(=O)N4CCC[C@@H](C(=O)O)N4)C3)ccc21, ester bond, EDCI/HOBt/DIEA, DCM, 36.7 mM, 25.0 °C, 6.0 h) was determined as 36%.

In turn, “benzyl 4-((((6^3S,3S,4S,Z)-4-((tert-butoxycarbonyl) amino)-1^1-ethyl-1^2-(2-((S)-1-methoxyethyl) pyridin-3-yl)-10,10-dimethyl-5,7-dioxo-6^1,6^2,6^3,6^4,6^5,6^6-hexahydro-1^1H-8-oxa-2 (4,2)-thiazola-1 (5,3)-indola-6 (1,3)-pyridazinacycloundecaphane-3-yl)oxy) methyl)-3,6-dihydropyridine-1 (2H)-carboxylate” registered a ring closure, isolated yield (cc_pd bond, Pd(dtbpf)Cl2/K3PO4, toluene/dioxane/H2O, 60.0 °C) of 32%.

Take “tert-butyl ((6^3S,4S,Z)-1^1-ethyl-1^2-(2-((S)-1-methoxyethyl) pyridin-3-yl)-10,10-dimethyl-5,7-dioxo-6^1,6^2,6^3,6^4,6^5,6^6-hexahydro-1^1H-8-oxa-2 (2,4)-oxazola-1 (5,3)-indola-6 (1,3)-pyridazinacycloundecaphane-4-yl) carbamate”: under “cc_pd bond, XPhos Pd G3/XPhos/K3PO4, dioxane/H2O 5:1, 55.0 mM, 70.0 °C”, the ring closure, isolated yield worked out at 56%.

Under “from CCn1c(-c2cccnc2[C@H](C)OC)c(CC(C)(C)CO)c2cc(-c3csc(C[C@H](NC(=O)OC(C)(C)C)C(=O)N4CCC[C@@H](C(=O)O)N4)n3)ccc21, ester bond, EDCI/HOBt/DIEA, DCM, 12.65 mM, 16.0 h”, `CCn1c(-c2cccnc2[C@H](C)OC)c2c3cc(ccc31)-c1csc(n1)C[C@H](NC(=O)OC(C)(C)C)C(=O)N1CCC[C@H](N1)C(=O)OCC(C)(C)C2` showed a ring closure, isolated yield of 81.1%.

Compound “(9H-fluoren-9-yl) methyl ((6^3S,4S,Z)-3-(dimethylamino)-1^1-ethyl-1^2-(2-((S)-1-methoxyethyl) pyridin-3-yl)-10, 10-dimethyl-5,7-dioxo-6^1,6^2,6^3,6^4,6^5,6^6-hexahydro-1^1H-8-oxa-2 (4,2)-thiazola-1 (5,3)-indola-6 (1,3)-pyridazinacycloundecaphane-4-yl) carbamate” returned a ring closure, isolated yield (cc_pd bond, Pd(dtbpf)Cl2/K3PO4, toluene/1,4-dioxane/H2O 3:1:1, 27.3 mM, 60.0 °C) of 19%.

In the case of “(9H-fluoren-9-yl) methyl (1R,5S,7r)-7-(5-((6^3S,3S,4S,Z)-4-((tert-butoxycarbonyl) amino)-3-ethoxy-1^1-ethyl-10, 10-dimethyl-5,7-dioxo-6^1,6^2,6^3,6^4,6^5,6^6-hexahydro-1^1H-8-oxa-2 (4,2)-thiazola-1 (5,3)-indola-6 (1,3)-pyridazinacycloundecaphane-12-yl)-6-((S)-1-methoxyethyl) pyridin-3-yl)-3-oxa-9-azabicyclo[3.3.1]nonane-9-carboxylate”, the ring closure, isolated yield (cc_pd bond, Pd(DtBPF)Cl2/K3PO4, toluene/1,4-dioxane/H2O (3:1:1), […], 80.0 °C) stood at 65%.

As to “(9H-fluoren-9-yl)methyl-7-(5-((6^3S,3S,4S,Z)-4-((tert-butoxycarbonyl) amino)-3-ethoxy-1^1-ethyl-10,10-dimethyl-5,7-dioxo-6^1,6^2,6^3,6^4,6^5,6^6-hexahydro-1^1H-8-oxa-2 (4,2)-thiazola-1 (5,3)-indola-6 (1,3)-pyridazinacycloundecaphane- 12-yl)-6-((S)-1-methoxyethyl) pyridin-3-yl)-3-oxa-9-azabicyclo[3.3.1] non-6-ene-9-carboxylate”, under “cc_pd bond, Pd(dppf)Cl2.DCM/K3PO4, toluene/dioxane/H2O 3:1:1, 205.0 mM, 80.0 °C”, the ring closure, isolated yield worked out at 49%.

“(2S,6S)—N-((6^3S,3S,4S,Z)-3-(2-(dimethylamino) ethoxy)-1^1-ethyl-1^2-(2-((S)-1-methoxyethyl) pyridin-3-yl)-10, 10-dimethyl-5,7-dioxo-6^1,6^2,6^3,6^4,6^5,6^6-hexahydro-1^1H-8-oxa-2 (4,2)-thiazola-1 (5,3)-indola-6 (1,3)-pyridazinacycloundecaphane-4-yl)-2,4,6-trimethylpiperazine-1-carboxamide”: the ring closure, isolated yield (cc_pd bond, Pd(dtbpf)Cl2/K3PO4, toluene/1,4-dioxane/H2O 3:1:1, 57.0 mM, 60.0 °C) is 50%.
